Test results taken from patent US7943795B2, “Vitamin D receptor modulators” (Eli Lilly and Company, priority 2004, dated 2011).

Test system: IL-10 production in PBMCs
Assay: IL-10 induction assay
Type: cell-based
Conditions: PBMC; TPA/PHA stimulated human PBMCs, IL-10 in supernatant by immunoassay
Description: 7. The IL-10 induction assay is described in the “Assay” section of the Description, infra.
The IL-10 Induction Assay
This is an in vitro efficacy assay for psoriasis, abscess and adhesion. Psoriasis involves both keratinocytes and immune cells. IL-10 is a unique cytokine because it is anti-inflammatory and immunosuppressive. This assay tells us whether a VDRM is able to function as an agonist in PBMCs (primary blood mononuclear cells) or not. A lower EC50 value is desirable in this assay since a compound with a lower EC50 value will be a better agonist in PBMCs. An acceptable test result is an EC50 value of less than 200 nM. Preferred assay results are EC50 values of less than 100 nM.
Isolation of Peripheral Blood Mononuclear Cells (PBMCs):
Collect 50 ml of human blood and dilute with media, RPMI-1640. Add diluted blood to sterile tubes with ficol. Centrifuge the tubes. Discard the top layer and collect the cells from middle layer. Divide all cells into four tubes and add media. Centrifuge. Aspirate off media and resuspend the cells. Collect all cells. Centrifuge at 1200 rpm for 10 m. Resuspend the cells in RPMI-1640 with 2% FBS and then count cells.
Stimulation of PBMC: Prepare TPA in DMSO. Dissolve PHA in water. Plate TPA/PHA treated PBMCs in well plates. Incubate the cells.
Treatment: Prepare all compound dilutions in plain RPMI-1640 media. Add diluted compound and incubate. Sample Collection and assay: Remove all the cells by centrifugation and assay the supernatant for IL-10 by immunoassay using anti-human IL-10 antibody coated beads, as described by the manufacturer (Linco Research Inc., St. Charles, Mo.).

Row | Structure (SMILES) | IC50 [nM]
1 | CCC(CC)(c1ccc(OCC(=O)C(C)(C)C)c(C)c1)c1ccc2cc(C(=O)O)ccc2c1 [Ex. 1, 6-{1-[4-(3,3-dimethyl-2-oxobutoxy)-3-methylphenyl]-1-ethylpropyl}naphthalene-2-carboxylic acid] | 76
2 | CCC(CC)(c1ccc(OCC(=O)C(C)(C)C)c(C)c1)c1ccc2cc(C(=O)N(C)CC(=O)O)ccc2c1 [Ex. 5, [(6-{1-[4-(3,3-Dimethyl-2-oxobutoxy)-3-methylphenyl]-1-ethylpropyl}naphthalene-2-carbonyl)methylamino]acetic acid] | 5
